Source: patent US8598314B2 (priority 2007, dated 2013)
Entries after “also recorded” stand apart in the source; their conditions may differ.

Experiments:
[1] = in vitro; conditions: human, kidney or brush border membranes, pH 7.4
Description: The tubes were incubated in VorTemp 56™ (Eurotech Labs, UK) at 37° C. vortexed at 500 RPM. At time points of 0, 1, 2, 3, 4, and 5 hours, 200 μl STOP solution (50% ACN, 1% formic acid) was added to a given tube, and the samples were allowed to incubate until the end of the experiment. The samples were collected after 5 hours, centrifuged, and 200 μl of the supernatants were transferred into mass spectrometry vials. The intensities of the mother ions in each vial were analyzed with API 150EX™ mass spectrometer (Applied Biosystems, Foster City, Calif.) and quantified using the ANALYST™ program.
The hKBBM assay was also performed in the presence of valinepyrrolidide, a DPP-IV inhibitor.

[2] = system: NIH/Swiss mice; test: Oral glucose tolerance test (OGTT), glucose lowering; format: in vivo; conditions: IP injection, 2 hour fasted NIH/Swiss mice, FIGS. 5 and 6
Description: . Test compounds were injected IP (t=0 min) immediately following baseline measurements of 2 hour fasted NIH/Swiss mice. Blood samples were taken at 60, 120, and 180 minutes after injection. In some assays, samples were also taken at 240 minutes after the injection. Blood glucose was measured with a One-Touch® Ultra® glucose meter (LifeScan, Inc., Milpitas, Calif.). […].
The tests were performed as described in Example 5.

[3] = system: Dahl salt-sensitive (DSS) male rats; test: Congestive heart failure (CHF) in vivo assay; conditions: 10 μg/kg/day subcutaneous infusion, high-salt diet
Description: In this assay, Dahl salt-sensitive (DSS) male rats were weaned at 21 days of age, maintained on a low-salt (LS) diet (0.2% NaCl) for 2 weeks. Rats were anesthetized with ketamine/xylazine (50 mg/kg/10 mg/kg, IP) and telemetry transmitters (Data Sciences, Inc.) were inserted to the aortic artery when rats were at 5 weeks of age. After surgery, the rats were allowed 10 days to recuperate before their BP (systolic and diastolic pressures) was recorded.
HS control animals (n=10 rats) were administered vehicle (50% DMSO) and fed HS in the same manner. LS control animals (n=5 rats) were maintained on the LS diet.

[4] = target: T1, ACE from rabbit lung (Oryctolagus cuniculus, UniProt P12822); test: ACE inhibition assay; format: biochemical
T1 construct: ACE from rabbit lung; purchased Sigma Chemical Co; host or cells: rabbit lung tissue
T1 sequence (P12822 34-1310): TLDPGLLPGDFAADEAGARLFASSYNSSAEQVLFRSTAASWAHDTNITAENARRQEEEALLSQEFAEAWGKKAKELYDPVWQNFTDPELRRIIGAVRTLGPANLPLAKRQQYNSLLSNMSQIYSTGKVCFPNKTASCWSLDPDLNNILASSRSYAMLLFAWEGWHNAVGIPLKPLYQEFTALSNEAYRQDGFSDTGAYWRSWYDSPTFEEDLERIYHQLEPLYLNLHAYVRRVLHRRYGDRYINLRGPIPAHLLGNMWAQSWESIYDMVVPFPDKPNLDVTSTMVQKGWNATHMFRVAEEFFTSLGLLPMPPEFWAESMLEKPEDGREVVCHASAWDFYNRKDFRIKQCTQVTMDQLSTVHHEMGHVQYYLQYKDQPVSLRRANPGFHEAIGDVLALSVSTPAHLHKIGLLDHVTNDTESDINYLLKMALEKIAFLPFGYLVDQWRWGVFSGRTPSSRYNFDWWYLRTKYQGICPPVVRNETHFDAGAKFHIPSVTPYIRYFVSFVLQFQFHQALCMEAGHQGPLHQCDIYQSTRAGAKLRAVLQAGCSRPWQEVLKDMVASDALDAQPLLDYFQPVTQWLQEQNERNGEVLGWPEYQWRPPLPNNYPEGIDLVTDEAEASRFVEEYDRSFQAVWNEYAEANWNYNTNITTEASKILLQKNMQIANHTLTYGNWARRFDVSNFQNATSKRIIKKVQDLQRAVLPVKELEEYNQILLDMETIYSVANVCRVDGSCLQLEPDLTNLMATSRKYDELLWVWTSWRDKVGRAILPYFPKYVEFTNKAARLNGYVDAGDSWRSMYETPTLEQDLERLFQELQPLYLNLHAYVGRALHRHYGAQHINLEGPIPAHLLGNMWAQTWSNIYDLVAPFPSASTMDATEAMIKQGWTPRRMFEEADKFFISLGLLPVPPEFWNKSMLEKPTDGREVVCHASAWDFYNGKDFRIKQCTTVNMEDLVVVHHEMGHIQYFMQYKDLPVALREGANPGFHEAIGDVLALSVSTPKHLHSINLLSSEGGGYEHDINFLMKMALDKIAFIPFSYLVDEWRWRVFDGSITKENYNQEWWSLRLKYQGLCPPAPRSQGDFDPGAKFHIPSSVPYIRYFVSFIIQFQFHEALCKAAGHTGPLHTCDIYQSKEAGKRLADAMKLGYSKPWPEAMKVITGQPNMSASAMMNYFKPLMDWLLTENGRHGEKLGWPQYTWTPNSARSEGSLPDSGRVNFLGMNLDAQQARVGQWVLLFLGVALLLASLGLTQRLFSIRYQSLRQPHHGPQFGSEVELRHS
Description: Peptide-ACE peptidase inhibitor conjugate compounds were assessed in an ACE inhibition assay using purified ACE enzyme and chromogenic substrates. An ACE stock solution was prepared by dissolving 0.1 unit of enzyme (ACE from rabbit lung, Sigma Chemical Co., St. Louis, Mo.) in 0.640 mL of HEPES buffer (0.1 M, pH=8). A 2 mM stock solution of substrate (N-benzyloxycarbonyl-Phe-His-Leu-OH) dissolved in methanol. The ACE inhibitor compounds were dissolved in phosphate buffer (0.1 M, pH=8) at concentrations of 0.0, 1, 10, 20, 60 and 100 μM. For the inhibition assay, six 2 mL microcentrifuge tubes were prepared containing 1.45 mL of phosphate buffer pH=8, 0.05 mL of 10% NaCl and 0.015 mL of substrate solution. To each microcentrifuge tube was added 0.015 mL of one of the ACE inhibitor compound's stock solutions. The solutions were heated at 37° C. for about 5 minutes. The reaction was started by the addition of 5 μL of the ACE stock solution to each tube mixture (30 seconds in between). The reaction mixtures were incubated at 37° C. After 5 min, 10 min, 30 min and 60 min., aliquots of 100 μL were taken from each tube (each sample was taken in intervals of 30 seconds). Tubes containing the 100 μL sample were floated in a boiling water bath for 5 min. and then cooled. The reaction samples were then treated with 20 μL of 2M NaOH and 20 μL of 0.1% phthaldialdehyde solution. The tubes were shaken for 4 minutes and 10 μL of 6 M HCl were added. […] Initial rates were determined from linear portions of product release curves. Starting substrate concentration in all assays was 20 μM. Apparent binding constants (Kd^app or Ki^app) of inhibitors to ACE were determined by fitting inhibition curves (initial rate vs. inhibitor concentration) to equation:
[formula] where v0 is reaction rate in the absence of inhibitor and [I]-inhibitor concentration. Fits were done by least-squares method using KaleidaGraph 3.6 (Synergy Software, Reading Pa.).

[5] = system: recombinant DPP-IV; test: recombinant DPP-IV in assay buffer (25 mM Tris-HCl, 140 mM NaCl, 10 mM KCl, pH 7.4); conditions: room temperature, up to 15 hours

CC[C@H](C)[C@H](NC(=O)[C@H](Cc1ccccc1)NC(=O)[C@H](CCC(=O)O)NC(=O)[C@H](CCCCN)NC(=O)[C@H](C)NC(=O)[C@H](C)NC(=O)[C@H](CCC(N)=O)NC(=O)CNC(=O)[C@H](CCC(=O)O)NC(=O)[C@H](CC(C)C)NC(=O)[C@H](Cc1ccc(O)cc1)NC(=O)[C@H](CO)NC(=O)[C@H](CO)NC(=O)[C@@H](NC(=O)[C@H](CC(=O)O)NC(=O)[C@H](CO)NC(=O)[C@@H](NC(=O)[C@H](Cc1ccccc1)NC(=O)[C@@H](NC(=O)CNC(=O)[C@H](CCC(=O)O)NC(=O)[C@H](C)NC(=O)[C@H](Cc1c[nH]cn1)NC(=O)COCCOCCNC(=O)[C@@H]1CCCN1C(=O)[C@H](C)NC(CCc1ccccc1)C(=O)O)[C@@H](C)O)[C@@H](C)O)C(C)C)C(=O)N[C@@H](C)C(=O)N[C@@H](Cc1c[nH]c2ccccc12)C(=O)N[C@@H](CC(C)C)C(=O)N[C@H](C(=O)N[C@@H](CCCCN)C(=O)NCC(=O)N[C@@H](CCCNC(=N)N)C(N)=O)C(C)C (stereo partly drawn) [Compound 4983, (R,S)-1-[N^2-(1-carboxy-3-phenylpropyl)-L-ala]-L-pro-8-amino-3,6-dioxaoctanoyl-GLP-1-(7-36) amide]
remaining at 4 h [1]: > 80%
glucose lowering in OGTT (in words) [2]: enhance glucose-lowering action compared to GLP-1

CC[C@H](C)[C@H](NC(=O)[C@H](Cc1ccccc1)NC(=O)[C@H](CCC(=O)O)NC(=O)[C@H](CCCCN)NC(=O)[C@H](C)NC(=O)[C@H](C)NC(=O)[C@H](CCC(N)=O)NC(=O)CNC(=O)[C@H](CCC(=O)O)NC(=O)[C@H](CC(C)C)NC(=O)[C@H](Cc1ccc(O)cc1)NC(=O)[C@H](CO)NC(=O)[C@H](CO)NC(=O)[C@@H](NC(=O)[C@H](CC(=O)O)NC(=O)[C@H](CO)NC(=O)[C@@H](NC(=O)[C@H](Cc1ccccc1)NC(=O)[C@@H](NC(=O)CNC(=O)[C@H](CCC(=O)O)NC(=O)[C@H](C)NC(=O)[C@H](Cc1c[nH]cn1)NC(=O)COCCOCCNC(=O)COCCOCCNC(=O)[C@@H]1CCCN1C(=O)[C@H](C)NC(CCc1ccccc1)C(=O)O)[C@@H](C)O)[C@@H](C)O)C(C)C)C(=O)N[C@@H](C)C(=O)N[C@@H](Cc1c[nH]c2ccccc12)C(=O)N[C@@H](CC(C)C)C(=O)N[C@H](C(=O)N[C@@H](CCCCN)C(=O)NCC(=O)N[C@@H](CCCNC(=N)N)C(N)=O)C(C)C (stereo partly drawn) [Compound 4984, (R,S)-1-[N^2-(1-carboxy-3-phenylpropyl)-L-ala]-L-pro-8-amino-3,6-dioxaoctanoyl-8-amino-3,6-dioxaoctanoyl-GLP-1-(7-36) amide]
remaining at 4 h [1]: > 80%
glucose lowering in OGTT (in words) [2]: enhance glucose-lowering action compared to GLP-1; also recorded: prolonged effect 4 hours after dosing

CC[C@H](C)[C@H](NC(=O)[C@H](Cc1ccccc1)NC(=O)[C@H](CC(C)C)NC(=O)[C@H](CCCNC(=N)N)NC(=O)[C@@H](NC(=O)[C@H](C)NC(=O)[C@H](CCC(=O)O)NC(=O)[C@H](CCC(=O)O)NC(=O)[C@H](CCC(=O)O)NC(=O)[C@H](CC(C)C)NC(=O)[C@H](CCC(N)=O)NC(=O)[C@H](CCCCN)NC(=O)[C@H](CO)NC(=O)[C@H](CC(C)C)NC(=O)[C@H](CC(=O)O)NC(=O)[C@H](CO)NC(=O)[C@@H](NC(=O)[C@H](Cc1ccccc1)NC(=O)[C@@H](NC(=O)CNC(=O)[C@H](CCC(=O)O)NC(=O)CNC(=O)[C@@H](N)Cc1c[nH]cn1)[C@@H](C)O)[C@@H](C)O)C(C)C)C(=O)N[C@@H](CCC(=O)O)C(=O)N[C@@H](Cc1c[nH]c2ccccc12)C(=O)N[C@@H](CC(C)C)C(=O)N[C@@H](CCCCN)C(=O)N[C@@H](CCC(N)=O)C(=O)NCC(=O)NCC(=O)N1CCC[C@H]1C(=O)N[C@@H](CO)C(=O)N[C@@H](CCCCN)C(=O)N[C@@H](CCC(=O)O)C(=O)N[C@H](C(=O)N[C@H](C(=O)N[C@@H](CO)C(=O)NCCOCCOCCOCC(=O)NCCOCCOCC(=O)NCCCC[C@H](NC(CCc1ccccc1)C(=O)O)C(=O)N1CCC[C@H]1C(=O)O)[C@@H](C)CC)[C@@H](C)CC (stereo partly shown) [Compound 5715]
mean diastolic blood pressure at week 5 [3]: 112 mmHg
mean heart rate at week 5 [3]: 381
mean systolic blood pressure at week 5 [3]: 161 mmHg
IC50 [4]: 260 nM

GLP-1(7-37)-GG-(S)-2,6-diamino-1-(thiazolidin-2-cyano-3-yl)hexan-1-one amide
not cleaved [5]: expected product ions were not observed; DPP-IV resistant under the test conditions

GLP-1(7-37)-GG-(S)-2,6-diamino-1-(thiazolidin-3-yl)hexan-1-one amide
not cleaved [5]: expected product ions were not observed; DPP-IV resistant under the test conditions
